# Experimental data from patent US20240206469A1, “PHOSPHORUS USE EFFICIENCY ENHANCERS AS PLANT GROWTH PROMOTORS” (EUROCHEM ANTWERPEN, priority 2021, published 2024).
# Tests used:
# Arabidopsis root hairs = assay: Root hair number and length quantification; assay type: in vivo, Arabidopsis thaliana
# Method: All Arabidopsis plant experiments were performed using the Arabidopsis thaliana Columbia-0 background. The Arabidopsis pSPX1::GUS line is described in the Plant Journal 2008, 54: 965-975. For rice, the cultivar Nipponbare was used. For maize, the cultivars DKC 2931 and B104 were used for regular pot experiments and sand-based pot experiments, respectively. For soybean, the cultivar Primus was used. […] The medium was solidified due to the addition of 0.6% Gelrite, unless stated otherwise. In case of vertical plates (root length and root hair measurements), the medium was supplied with 0.5% of sucrose and 1 μM (low phosphate, 1 μM KH2PO4, 9.9 mM KCl), 10 μM (low phosphate 10 μM KH2PO4, 9.9 mM KCl) or 1.25 mM KH2PO4 (high phosphate). Arabidopsis seeds were stratified for 2 days at 4° C. before germination. Seedlings were germinated in climate-controlled growth chambers at 22° C. under continuous light (100 μmol m^−2 s^−1). Husked rice seeds were germinated on wetted Whatman paper for 2 days at 37° C. and then transferred to Sterivent boxes or square Petri dishes with solid medium. Maize and soybean seeds were wetted 24 hours at room temperature prior to sowing in pots.
# Roots were imaged using a stereomicroscope or a VHX-6000. Number and length of the root hairs parallel to the medium surface was determined at 4 to 6 mm above the root meristem. Root hair length was measured using the ImageJ software.
# Rice [1] = assay: Rice plate experiment; assay type: in vivo, rice cultivar Nipponbare; details: low phosphate 0.001 mM, 10 μM, 11 days after germination, control 14.4
# Method: (§1) All Arabidopsis plant experiments were performed using the Arabidopsis thaliana Columbia-0 background. The Arabidopsis pSPX1::GUS line is described in the Plant Journal 2008, 54: 965-975. For rice, the cultivar Nipponbare was used. For maize, the cultivars DKC 2931 and B104 were used for regular pot experiments and sand-based pot experiments, respectively. For soybean, the cultivar Primus was used. […] The medium was solidified due to the addition of 0.6% Gelrite, unless stated otherwise. […]
# (§2) Arabidopsis primary root growth experiments were done on MS1/2 on vertical standing plates and roots were measured 11 days after germination. Roots were imaged using a flatbed scanner (EPSON Expression 11000XL) and root length was measured using ImageJ software. Arabidopsis shoot biomass was determined in 11 days after germination and growth on vertical standing plates with modMS. Arabidopsis leaf area was measured 21 days after germination on horizontal plates with modMS medium. Plates were scanned from the top using a flatbed scanner (EPSON Expression 11000XL) and the visible leaf area was measured using ImageJ software. […] Plant height was measured 11 days after germination. […] Plant height was measured 13 days after germination. […]
# Rice [2] = assay: Rice box experiment; assay type: in vivo, rice cultivar Nipponbare; details: low phosphate 0.025 mM, 10 μM, 13 days after germination, control 1.1
# Method: as §1, §2
# Soybean = Soybean pot experiment; assay type: in vivo, soybean cultivar Primus; details: low phosphate, 10 μM, 4 weeks
# Method: as §1
# Regular Arabidopsis, soybean and maize pot experiments used an unfertilized potting soil, which was supplemented at the start of the experiment with 50 ml H2O containing 0.25 g/l NH4NO3 and 0.44 g/l (high phosphate) or no (maize and soybean) or 0.11 g/l KH2PO (Arabidopsis) for low phosphate conditions. […] Compound concentration was 10 μM, calculated based on the total water content after watering, and was added at the start of the experiment (Arabidopsis) or once a week (maize). […] All parameters in the sand experiment, except the rate of leaf 4 (measured the first 4 days after emergence), were measured 19 days after sowing. Measurements in the pot experiments with potting soil were done after 4 weeks of growth, except for leaf 5, which was measured at 26 days. […]
# Maize B104 = assay: Long-term maize pot experiment, B104 (PHENOVISION); assay type: in vivo, maize cultivar B104
# Method: Regular Arabidopsis, soybean and maize pot experiments used an unfertilized potting soil, which was supplemented at the start of the experiment with 50 ml H2O containing 0.25 g/l NH4NO3 and 0.44 g/l (high phosphate) or no (maize and soybean) or 0.11 g/l KH2PO (Arabidopsis) for low phosphate conditions. For the sand-based maize pot experiment, sand was supplemented with 50 ml H2O containing 0.25 g/l NH4NO3 and 0.38 g/l (high phosphate) or 0.02 g/l (low phosphate) KH2PO4. Potassium was balanced via addition of KCl. Compound concentration was 10 μM, calculated based on the total water content after watering, and was added at the start of the experiment (Arabidopsis) or once a week (maize). Indexed chlorophyll contents were received via a SPAD 502 Plus Chlorophyll Meter. All parameters in the sand experiment, except the rate of leaf 4 (measured the first 4 days after emergence), were measured 19 days after sowing. Measurements in the pot experiments with potting soil were done after 4 weeks of growth, except for leaf 5, which was measured at 26 days. One long-term maize pot experiment was conducted with the DKC 2931 (2.5 months) and B104 (3 months) cultivars on the PHENOVISION phenotyping platform as described in Frontiers in Plant Science 2021, 12: 640914, except that an unfertilized potting soil was used and that plants were fertilized with a low-phosphate Hoagland solution. The 2.5× overconcentrated low-phosphate Hoagland solution contained 0.034 g/l KH2PO and 200 mL of this solution was applied twice a week. 1.4 mL of a 10 mM compound solution was added each two weeks to each pot, corresponding to 9.6 mg/g nutrients. 13 plants per condition were used. During the experiment, pictures were taken twice a week for each plants from 6 different angles and the top. Pictures were used to extract the plant height and to extract the projected plant area from each side and calculate an estimated plant volume over time.
compound,measurement,setting,value
"CC1CN(CC(=O)c2c(N)n(C)c(=O)n(C)c2=O)c2ccccc2O1 (stereo not shown) [Compound 8, 6-amino-1,3-dimethyl-5-[2-(2-methyl-2,3-dihydro-1,4-benzoxazin-4-yl)acetyl]pyrimidine-2,4-dione]",activity at 0.6 µM,"Arabidopsis root hairs; Arabidopsis thaliana, 0.6 μM, read-out: Total root hair length per root (in % compared to the control)",104%
same,activity at 1.25 µM,"Arabidopsis root hairs; Arabidopsis thaliana, 1.25 μM, read-out: Total root hair length per root (in % compared to the control)",333%
same,activity at 2.5 µM,"Arabidopsis root hairs; Arabidopsis thaliana, 2.5 μM, read-out: Total root hair length per root (in % compared to the control)",347%
same,activity at 5 µM,"Arabidopsis root hairs; Arabidopsis thaliana, 5 μM, read-out: Total root hair length per root (in % compared to the control)",485%
same,activity at 10 µM,"Arabidopsis root hairs; Arabidopsis thaliana, 10 μM, read-out: Total root hair length per root (in % compared to the control)",586%
same,Average root hair length per root in high phosphate conditions,"Arabidopsis root hairs; Arabidopsis vertical plate, high phosphate, control 0.11",0.32 mm
same,Root hair number in high phosphate conditions (one plane in 2 mm region),"Arabidopsis root hairs; Arabidopsis vertical plate, high phosphate, control 3",9
same,Total root hair length per root in high phosphate conditions,"Arabidopsis root hairs; Arabidopsis vertical plate, high phosphate, control 57",183 cm
same,Plant height,Rice [1],16 cm
same,Plant height,Rice [2],3.1 cm
same,Biomass,Soybean; control 4.1,4.4 g
same,Plant height,Soybean; control 50,55 cm
same,Plant height,"Maize B104; B104, day 15, control 230",220 mm
same,Estimated volume,"Maize B104; B104, day 15, control 311",292 cm^3
same,Plant height,"Maize B104; B104, day 19, control 246",239 mm
same,Estimated volume,"Maize B104; B104, day 19, control 465",441 cm^3
same,Plant height,"Maize B104; B104, day 22, control 291",288 mm
same,Estimated volume,"Maize B104; B104, day 22, control 548",565 cm^3
same,Plant height,"Maize B104; B104, day 26, control 351",368 mm
same,Estimated volume,"Maize B104; B104, day 26, control 623",689 cm^3
same,Plant height,"Maize B104; B104, day 27, control 416",364 mm
same,Estimated volume,"Maize B104; B104, day 27, control 637",552 cm^3
same,Plant height,"Maize B104; B104, day 29, control 412",411 mm
same,Estimated volume,"Maize B104; B104, day 29, control 788",877 cm^3
same,Plant height,"Maize B104; B104, day 33, control 424",428 mm
same,Estimated volume,"Maize B104; B104, day 33, control 1146",1368 cm^3
same,Plant height,"Maize B104; B104, day 36, control 472",485 mm
same,Estimated volume,"Maize B104; B104, day 36, control 1405",1735 cm^3
same,Plant height,"Maize B104; B104, day 40, control 507",547 mm
same,Estimated volume,"Maize B104; B104, day 40, control 1673",2117 cm^3
same,Plant height,"Maize B104; B104, day 43, control 551",587 mm
same,Estimated volume,"Maize B104; B104, day 43, control 1795",2363 cm^3
same,Plant height,"Maize B104; B104, day 47, control 609",657 mm
same,Estimated volume,"Maize B104; B104, day 47, control 2268",2844 cm^3
same,Plant height,"Maize B104; B104, day 50, control 633",692 mm
same,Estimated volume,"Maize B104; B104, day 50, control 2874",3518 cm^3
same,Plant height,"Maize B104; B104, day 54, control 544",564 mm
same,Estimated volume,"Maize B104; B104, day 54, control 3143",3857 cm^3
same,Plant height,"Maize B104; B104, day 57, control 572",569 mm
same,Estimated volume,"Maize B104; B104, day 57, control 3365",4216 cm^3
same,Plant height,"Maize B104; B104, day 61, control 572",609 mm
same,Estimated volume,"Maize B104; B104, day 61, control 3936",5052 cm^3
same,Plant height,"Maize B104; B104, day 63, control 514",529 mm
same,Estimated volume,"Maize B104; B104, day 63, control 3808",4933 cm^3
same,Plant height,"Maize B104; B104, day 68, control 566",593 mm
same,Estimated volume,"Maize B104; B104, day 68, control 4585",5837 cm^3
same,Plant height,"Maize B104; B104, day 71, control 611",629 mm
same,Estimated volume,"Maize B104; B104, day 71, control 4957",5962 cm^3
same,Plant height,"Maize B104; B104, day 75, control 569",627 mm
same,Estimated volume,"Maize B104; B104, day 75, control 5016",6099 cm^3
same,Plant height,"Maize B104; B104, day 78, control 590",662 mm
same,Estimated volume,"Maize B104; B104, day 78, control 5551",6540 cm^3
same,Plant height,"Maize B104; B104, day 82, control 626",685 mm
same,Estimated volume,"Maize B104; B104, day 82, control 5788",6751 cm^3
same,Plant height,"Maize B104; B104, day 85, control 677",707 mm
same,Estimated volume,"Maize B104; B104, day 85, control 5957",6623 cm^3
same,Plant height,"Maize B104; B104, day 89, control 697",733 mm
same,Estimated volume,"Maize B104; B104, day 89, control 5717",6434 cm^3
same,Average number of ears,"Maize B104; Maize pot long term B104, 3 months, low phosphate, control 0.3",0.7
same,Shoot weight,"Maize B104; Maize pot long term B104, low phosphate, control 28",32 g
same,Leaf 6,"Maize B104; Maize pot long term B104, low phosphate, control 48",50 cm
